In patent US10266526B2, “Substituted 1,2,3-triazoles as SMYD inhibitors for treating cancer” (EPIZYME, INC., priority 2014, dated 2019):

Molecular target: SMYD2 (Homo sapiens (Human), UniProt Q9NRG4)
Test: SMYD2 biochemical assay (SMYD2 enzyme assay on peptide substrate, 3H-SAM Flashplate)
Details: read-out: SMYD2 Biochem IC50; IC50 values are an average of n = 1 to n = 50

Sequence of SMYD2 (Q9NRG4 whole entry): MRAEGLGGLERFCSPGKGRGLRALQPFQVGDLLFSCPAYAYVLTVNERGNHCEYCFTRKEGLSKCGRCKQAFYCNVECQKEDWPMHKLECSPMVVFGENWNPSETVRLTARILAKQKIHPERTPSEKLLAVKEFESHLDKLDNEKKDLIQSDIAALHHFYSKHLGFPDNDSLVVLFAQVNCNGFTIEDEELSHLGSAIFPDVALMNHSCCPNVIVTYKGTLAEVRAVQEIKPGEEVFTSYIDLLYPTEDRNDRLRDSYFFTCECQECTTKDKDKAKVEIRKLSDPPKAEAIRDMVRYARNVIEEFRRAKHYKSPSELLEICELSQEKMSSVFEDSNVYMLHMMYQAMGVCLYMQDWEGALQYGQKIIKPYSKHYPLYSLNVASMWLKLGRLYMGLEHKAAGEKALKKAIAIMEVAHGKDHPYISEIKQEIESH

Row | Compound | IC50 [nM]
1 | CC(c1ccccc1C(F)(F)F)N1CC(NC(=O)c2cn(C3CC3)nn2)C1 (stereo not shown) [compound 741, 1-cyclopropyl-N-(1-{1-[2-(trifluoromethyl)phenyl]ethyl}azetidin-3-yl)-1H-1,2,3-triazole-4-carboxamide] | 1010
2 | CC(C)N1CC(NC(=O)c2cn(C3CC3)nn2)C1 [compound 662, 1-cyclopropyl-N-[1-(propan-2-yl)azetidin-3-yl]-1H-1,2,3-triazole-4-carboxamide] | 846
3 | C[C@H](c1ccccc1)N1CC(NC(=O)c2cn(C3CC3)nn2)C1 [compound 720, 1-cyclopropyl-N-{1-[(1R)-1-phenylethyl]azetidin-3-yl}-1H-1,2,3-triazole-4-carboxamide] | 23300
4 | O=C(NC1CN(CCCO)C1)c1cn(C2CC2)nn1 [compound 707, 1-cyclopropyl-N-[1-(3-hydroxypropyl)azetidin-3-yl]-1H-1,2,3-triazole-4-carboxamide] | 1910
5 | O=C(NC1CN(Cc2cnn(Cc3nccs3)c2)C1)c1cn(C2CC2)nn1 [compound 991, 1-cyclopropyl-N-(1-((1-(thiazol-2-ylmethyl)-1H-pyrazol-4-yl)methyl)azetidin-3-yl)-1H-1,2,3-triazole-4-carboxamide] | 760
6 | CNC1CCCC(C(=O)Nc2cc(O)c3c(c2)OCC(=O)N3)C1 (stereo not shown) [compound 820, N-(5-hydroxy-3-oxo-3,4-dihydro-2H-1,4-benzoxazin-7-yl)-3-(methylamino)cyclohexane-1-carboxamide] | > 50000
7 | O=C(NC1CN(Cc2ccc(OCc3ccccn3)cc2)C1)c1cn(C2CC2)nn1 [compound 992, 1-cyclopropyl-N-(1-(4-(pyridin-2-ylmethoxy)benzyl)azetidin-3-yl)-1H-1,2,3-triazole-4-carboxamide] | 2700
8 | Cn1cc(CN2CC(NC(=O)c3cc(C4CC4)cnn3)C2)c(Cl)n1 [compound 833, N-{1-[(3-chloro-1-methyl-1H-pyrazol-4-yl)methyl]azetidin-3-yl}-5-cyclopropylpyridazine-3-carboxamide] | 940
9 | O=C(NC1CN(CC2CC2)C1)c1cn(C2CC2)nn1 [compound 665, 1-cyclopropyl-N-[1-(cyclopropylmethyl)azetidin-3-yl]-1H-1,2,3-triazole-4-carboxamide] | 2000
10 | O=C(NC1CN(Cc2cnn(CCc3ccccc3)c2)C1)c1cn(C2CC2)nn1 [compound 806, 1-cyclopropyl-N-(1-{[1-(2-phenylethyl)-1H-pyrazol-4-yl]methyl}azetidin-3-yl)-1H-1,2,3-triazole-4-carboxamide] | 970
11 | CC(O)COc1cccc(C(C)N2CC(NC(=O)c3cn(C4CC4)nn3)C2)c1Cl (stereo not shown) [compound 978, N-(1-(1-(2-chloro-3-(2-hydroxypropoxy)phenyl)ethyl)azetidin-3-yl)-1-cyclopropyl-1H-1,2,3-triazole-4-carboxamide] | 1100
12 | CNCCOc1cccc(C(C)N2CC(NC(=O)c3cn(C4CC4)nn3)C2)c1Cl (stereo not shown) [compound 975, N-(1-(1-(2-chloro-3-(2-(methylamino)ethoxy)phenyl)ethyl)azetidin-3-yl)-1-cyclopropyl-1H-1,2,3-triazole-4-carboxamide] | 5400
13 | O=C(NC1CN(Cc2cn(CCc3ccccc3)cn2)C1)c1cn(C2CC2)nn1 [compound 782, 1-cyclopropyl-N-(1-{[1-(2-phenylethyl)-1H-imidazol-4-yl]methyl}azetidin-3-yl)-1H-1,2,3-triazole-4-carboxamide] | 2620
14 | O=C(NC1CN(CC2CCC2)C1)c1cn(C2CC2)nn1 [compound 669, N-[1-(cyclobutylmethyl)azetidin-3-yl]-1-cyclopropyl-1H-1,2,3-triazole-4-carboxamide] | 1620
15 | CC(c1cccc(OCc2ccccc2)c1)N1CC(NC(=O)c2cn(C3CC3)nn2)C1 (stereo not shown) [compound 737, N-(1-{1-[3-(benzyloxy)phenyl]ethyl}azetidin-3-yl)-1-cyclopropyl-1H-1,2,3-triazole-4-carboxamide] | 718
16 | CN1CCCC(NC(=O)c2cc(C3CC3)cnn2)C1 (stereo not shown) [compound 918, 5-cyclopropyl-N-(1-methylpiperidin-3-yl)pyridazine-3-carboxamide] | > 50000
17 | COc1ccc(C(F)(F)F)cc1C(C)N1CC(NC(=O)c2cn(C3CC3)nn2)C1 (stereo not shown) [compound 690, 1-cyclopropyl-N-(1-{1-[2-methoxy-5-(trifluoromethyl)phenyl]ethyl}azetidin-3-yl)-1H-1,2,3-triazole-4-carboxamide] | 7990
18 | O=C(NC1CN(Cc2cnn(Cc3ccccc3)c2)C1)c1nnc(C2CC2)o1 [compound 1021, N-(1-((1-benzyl-1H-pyrazol-4-yl)methyl)azetidin-3-yl)-5-cyclopropyl-1,3,4-oxadiazole-2-carboxamide] | 65
19 | O=C(NC1CN(C(c2ccc(OCc3ccccc3)cc2)C(F)(F)F)C1)c1cn(C2CC2)nn1 (stereo not shown) [compound 816, N-(1-{1-[4-(benzyloxy)phenyl]-2,2,2-trifluoroethyl}azetidin-3-yl)-1-cyclopropyl-1H-1,2,3-triazole-4-carboxamide] | > 50000
20 | O=C(NC1CN(Cc2ccccc2)C1)c1cn(C2CC2)nn1 [compound 672, N-(1-benzylazetidin-3-yl)-1-cyclopropyl-1H-1,2,3-triazole-4-carboxamide] | 1550
21 | O=C(NC1CN(C(c2ccccc2)C(F)(F)F)C1)c1cn(C2CC2)nn1 (stereo not shown) [compound 766, 1-cyclopropyl-N-[1-(2,2,2-trifluoro-1-phenylethyl)azetidin-3-yl]-1H-1,2,3-triazole-4-carboxamide] | > 50000
22 | COCCCOc1ccc(CN2CC(NC(=O)c3cn(C4CC4)nn3)C2)cc1 [compound 818, 1-cyclopropyl-N-(1-{[4-(3-methoxypropoxy)phenyl]methyl}azetidin-3-yl)-1H-1,2,3-triazole-4-carboxamide] | 3000
23 | CC(c1ccccc1F)N1CC(NC(=O)c2cn(C3CC3)nn2)C1 (stereo not shown) [compound 678, 1-cyclopropyl-N-{1-[1-(2-fluorophenyl)ethyl]azetidin-3-yl}-1H-1,2,3-triazole-4-carboxamide] | 907
24 | O=C(NC1CN(C2(c3ccccc3)COC2)C1)c1cn(C2CC2)nn1 [compound 781, 1-cyclopropyl-N-[1-(3-phenyloxetan-3-yl)azetidin-3-yl]-1H-1,2,3-triazole-4-carboxamide] | > 50000
25 | CC(C)N1CC(NC(=O)c2cc(C3CC3)cnn2)C1 [compound 645, 5-cyclopropyl-N-[1-(propan-2-yl)azetidin-3-yl]pyridazine-3-carboxamide] | 745
26 | COc1cccc(Cn2cc(CN3CC(NC(=O)c4cn(C5CC5)nn4)C3)cn2)c1 [compound 982, 1-cyclopropyl-N-(1-((1-(3-methoxybenzyl)-1H-pyrazol-4-yl)methyl)azetidin-3-yl)-1H-1,2,3-triazole-4-carboxamide] | 169
27 | COc1cc(OCc2ccccc2)ccc1C(C)N1CC(NC(=O)c2cn(C3CC3)nn2)C1 (stereo not shown) [compound 800, N-(1-{1-[4-(benzyloxy)-2-methoxyphenyl]ethyl}azetidin-3-yl)-1-cyclopropyl-1H-1,2,3-triazole-4-carboxamide] | 965
28 | O=C(NC1CN(Cc2cnn(Cc3ncco3)c2)C1)c1cn(C2CC2)nn1 [compound 944, 1-cyclopropyl-N-(1-((1-(oxazol-2-ylmethyl)-1H-pyrazol-4-yl)methyl)azetidin-3-yl)-1H-1,2,3-triazole-4-carboxamide] | 920
